Assay: Solubility and chemical stability of baicalin in aqueous medium as a function of pH
Format: physicochemical
From the text: Baicalin is a polyphenol displaying an antioxidant activity. There is thus a need, for consumers, to provide cosmetic compositions comprising baicalin, or an extract containing same, at a high concentration and having a greater antioxidant efficacy than the cosmetic compositions known in the prior art comprising baicalin. However, the solubility of baicalin is very low in aqueous medium. It is therefore very difficult to incorporate in a composition, in particular a cosmetic composition, at a high mass concentration, in particular at a mass concentration greater than 0.2%. At a mass concentration greater than 0.2%, the appearance of the presence of crystallized baicalin is observed. The present inventors have identified that the solubility of baicalin was increased with the pH.
In particular, the method implemented to incorporate baicalin, or an extract containing same, at a high mass concentration, i.e. for example greater than 0.5% in the aqueous phase of a composition consists, in a first transitory step, of completely dissolving the baicalin in aqueous phase in a basic medium using a base to raise the pH to a value greater than 6. Under these conditions, it is possible to prepare aqueous solutions comprising up to 10% baicalin as a mass concentration, without using hydrotropic agents.
Baicalin is presented in the form of a yellow powder, having a purity optionally greater than 90 or 95%. Baicalin crystals may be presented in the form of needles.

Structure (SMILES): O=C(O)[C@H]1O[C@@H](Oc2cc3oc(-c4ccccc4)cc(=O)c3c(O)c2O)[C@H](O)[C@@H](O)[C@@H]1O [Baicalin]
- baicalin mass concentration attainable in aqueous solution: up to 10%
- chemical stability of baicalin (at a pH greater than 6): chemically unstable and is degraded
- mass concentration above which crystallized baicalin appears (in a composition, mass concentration): greater than 0.2%
